Source: patent publication US20120288495A1, “THERAPEUTIC COMPOSITIONS AND METHODS” (BIOTHERA, INC., priority 2009, published 2012)

Key:
[1] = system: neutrophils and monocytes; conditions: cited from earlier work
[2] = Physicochemical properties of purified soluble β-glucan
From the text: The soluble β-glucan has an average molecular weight between about 120,000 Da and about 205,000 Da and a molecular weight distribution (polydispersity) of not more than 2.5 as determined by HR-GPC with multiple angle light scattering (HR-GPC/MALS) and differential refractive index detection. Powder X-ray diffraction and magic-angle spinning NMR determined that the product consists of polymeric chains associated into triple helices. The soluble β-glucan is typically uncharged and therefore has no pKa.

[3] = system: IL-1, TNF, and leukotrienes; conditions: cited from earlier work
[4] = system: HCT-116 colorectal carcinoma; assay: LIVE/DEAD cell mediated cytotoxicity assay: PBMC killing of KRAS-mutated tumor cells; type: cell-based, human
Protocol: The tumor target line HCT-116 colorectal carcinoma (American Type Culture Collection, Manassas, Va., ATCC No. CCL-247) was maintained in McCoy's 5A media supplemented with 10% fetal calf serum (Hyclone Laboratories, Inc., Logan, Utah).
Cytotoxicity was measured with the LIVE/DEAD Cell Mediated Cytotoxicity Kit (Invitrogen, Carlsbad, Calif.) according to manufacturer's instructions. Briefly, the HCT-116 target cells were stained with 1:80 dilution of DiOC18 in Phosphate Buffered Saline (PBS, Mediatech Inc. Manassas, Va.) and incubated at 37° C. for 30 minutes. The cells were then washed twice in PBS and resuspended at 2×10^6 cells/mL in complete media containing 10% human serum.
DiOC labeled target cells incubated with ERBITUX dilutions for 30 minutes at 37° C. In each well of a 96-well plate, 1.25×10^6 freshly isolated peripheral blood mononuclear cells (PBMC) along with IMPRIME-PGG dilution or 50 ng/ml IL-2 (R&D Systems, Minneapolis, Minn.) in of total volume of 100 μl media incubated at 37° C. for 30 minutes. 5×10^4 targets added to wells in 25 μl of media and assay incubated overnight at 37° C. Following incubation, target cell viability measured by staining with 125 μl of propidium iodide (PI) viability reagent diluted 1:5000 from stock solution provided in the assay kit. Cells incubated for 30 minutes at 37° C. before analysis on LSR II flow cytometer (BD Biosciences, San Jose, Calif.) to determine percentage of DiOC stained targets that intercalate the PI stain, indicating cell death.

poly-(1-6)-β-D-glucopyranosyl-(1-3)-β-D-glucopyranose [soluble β-glucan]
number of neutrophils and monocytes and their direct antitumor activity (phagocytosis and microbial killing) [1]: increase the number of neutrophils and monocytes as well as their direct antitumor activity | pKa [2]: has no pKa | solubility in water [2]: soluble in water independent of pH | production of biochemical mediators (IL-1, TNF, leukotrienes) [3]: does not stimulate the production of biochemical mediators | ability of human PBMCs to kill KRAS-mutated tumor cells ([4]; FIG. 2, flow cytometry data, in vitro): enhances the ability of human peripheral blood mononuclear cells (PBMCs) to kill KRAS-mutated tumor cells in vitro | ability of human PBMCs to kill KRAS-mutated tumor cells ([4]; FIG. 3, in vitro, N=1, E:T=25:1): enhances the ability of human peripheral blood mononuclear cells (PBMCs) to kill KRAS-mutated tumor cells in vitro | antitumor activity in the presence of an EGF-r antagonist antibody ([4]; FIG. 4, with ERBITUX, N=1, E:T=25:1): exhibits greater antitumor activity in the presence of an EGF-r antagonist antibody
